From patent publication US10617680B2 (CELGENE QUANTICEL RESEARCH, INC., priority 2017, dated 2020) come the findings set out here.

The structures appear in SMILES notation.

For orientation: IC50 means the concentration needed to halve the response being measured.

Chain of CBP (Q92793 1081-1197): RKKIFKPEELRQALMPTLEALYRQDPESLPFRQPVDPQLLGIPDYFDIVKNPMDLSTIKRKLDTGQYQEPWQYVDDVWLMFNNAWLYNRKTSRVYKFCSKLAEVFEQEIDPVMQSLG

The target of this assay is CBP (Homo sapiens (Human), UniProt Q92793). The experiment in a line: In vitro CBP inhibition (AlphaScreen, biotinylated H4-tetraacetyl peptide). In kind it is binding. As to conditions: AlphaScreen, Table 29; read-out: CBP IC50. Summed up:
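His-tagged CBP expressed in E. coli (50 nM final) incubated with biotinylated H4K5/8/12/16(Ac) peptide (20 nM final) in 50 mM HEPES pH 7.3, 10 mM NaCl, 0.25 mM TCEP, 0.1% BSA, 0.005% Brij-35, 0.4% DMSO, 20 min at room temp.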
For the compound `Cn1cc(-c2cn(C)c(=O)cc2C2CCCCC2)cn1` [Example 143, 4-cyclohexyl-1-methyl-5-(1-methyl-1H-pyrazol-4-yl)pyridin-2 (1H)-one], the concentration for half-maximal inhibition (IC50) was 500 to 5000 nM.

Turning to `COc1cc(-c2cc(=O)n(C)cc2-c2cnn(-c3ccccc3C#N)c2)cc(OC)c1OC` [Example 246, 2-{4-[1-Methyl-6-oxo-4-(3,4,5-trimethoxy-phenyl)-1,6-dihydro-pyridin-3-yl]-pyrazol-1-yl}-benzonitrile], the 50% inhibitory concentration (IC50) lay in the range of 500 to 5000 nM.

Turning to `Cn1cc(-c2cnn(Cc3ccccc3)c2)c(-n2cccc2)cc1=O` [Example 68, 5-(1-benzyl-1H-pyrazol-4-yl)-1-methyl-4-(1H-pyrrol-1-yl) pyridi-2(1H)-one], the 50% inhibitory concentration (IC50) was less than 500 nM.

As for `COc1cccc(C(C)n2cc(-c3ccc(=O)n(C)c3)cn2)c1` (stereo not drawn) [Example 28, 5-(1-(1-(3-methoxy-phenyl)ethyl)-1H-pyrazol-4-yl)-1-methyl-pyridin-2(1H)--one], the IC50 is less than 500 nM.

On to `Cn1cc(-c2cnn(-c3cccc(Cl)c3C#N)c2)c(-c2ccc(OC3CC3)nc2)cc1=O` [Example 364, 2-chloro-6-[4-[4-[6-(cyclopropoxy)-3-pyridyl]-1-methyl-6-oxo-3-pyridyl]pyrazol-1-yl]benzonitrile], for which the concentration for half-maximal inhibition (IC50) was less than 500 nM.

In the case of `C[C@@H](c1ccccc1)n1cc(-c2cn(C)c(=O)cc2N2CCCC2)cn1` [Example 47, (S)-1-methyl-5-(1-(1-phenylethyl)-1H-pyrazol-4-yl)-4-(pyrrolidin-1-yl)pyridin-2(1H)-one], the IC50 was less than 500 nM.

Consider `Cn1cc(-c2cc(=O)n(C)cc2-c2cnn(-c3ccccc3-c3nnn[nH]3)c2)cn1` [Example 300, 1-Methyl-4-(1-methyl-1H-pyrazol-4-yl)-5-{1-[2-(1H-tetrazol-5-yl)-phenyl]-1H-pyrazol-4-yl}-1H-pyridin-2-one], for which the IC50 is less than 500 nM.

For the compound `CC(c1ccccc1)n1cc(-c2cn(C)c(=O)cc2-c2ccc(OCCCN(C)C)nc2)cn1` (stereo not drawn) [Example 313, 6-(3-(dimethylamino)propoxy)-1′-methyl-5′-(1-(1-phenylethyl)-1H-pyrazol-4-yl)-[3,4′-bipyridin]-2′(1′H)-one], the half-inhibitory concentration (IC50) is less than 500 nM.

Take `COC(=O)Cn1cc(-c2cn(C)c(=O)cc2-c2ccccc2)cn1` [Example 140, methyl 2-(4-(1-methyl-6-oxo-4-phenyl-1,6-dihydropyridin-3-yl)-1H-pyrazol-1-yl)acetate]: the 50% inhibitory concentration (IC50) was less than 500 nM.

With `CCOc1ccc(-c2cc(=O)n(C)cc2-c2cnn(-c3cccc(Cl)c3C#N)c2)cn1` [Example 365, 2-chloro-6-(4-(6-ethoxy-1′-methyl-6′-oxo-1′,6′-dihydro-[3,4′-bipyridin]-3′-yl)-1H-pyrazol-1-yl)benzonitrile], the IC50 was less than 500 nM.

For the compound `CC(C)COc1ccc(-c2cc(=O)n(C)cc2-c2cnn(-c3ccccc3C(=O)O)c2)cn1` [Example 232, 2-[4-(6-Isobutoxy-1′-methyl-6′-oxo-1′,6′-dihydro-[3,4′]bipyridinyl-3′-yl)-pyrazol-1-yl]-benzoic acid], the 50% inhibitory concentration (IC50) was less than 500 nM.

Consider `CCCNC(=O)Cn1cc(-c2cn(C)c(=O)cc2-c2ccccc2)cn1` [Example 141, 2-(4-(1-methyl-6-oxo-4-phenyl-1,6-dihydro-pyridin-3-yl)-1H-pyrazol-1-yl)-N-propylacetamide], for which the IC50 was less than 500 nM.

In the case of `CN(C)c1ccc(-c2cc(=O)n(C)cc2-c2cnn(-c3cccc(Cl)c3C#N)c2)cn1` [Example 345, 2-chloro-6-{4-[6-(dimethylamino)-1′-methyl-6′-oxo-1′,6′-dihydro-[3,4′-bipyridine]-3′-yl]-1H-pyrazol-1-yl}benzonitrile], the IC50 is less than 500 nM.

With `CN(C)c1ncc(-c2cc(=O)n(C)cc2-c2cnn(-c3cccc(Cl)c3C#N)c2)cn1` [Example 328, 2-chloro-6-(4-(4-(2-(dimethylamino)pyrimidin-5-yl)-1-methyl-6-oxo-1,6-dihydropyridin-3-yl)-1H-pyrazol-1-yl)benzonitrile], the half-inhibitory concentration (IC50) was less than 500 nM.

For the compound `Cn1cc(-c2cnn(-c3cccc(F)c3C#N)c2)c(-c2ccc(Cl)cc2)cc1=O` [Example 275, 2-{4-[4-(4-Chloro-phenyl)-1-methyl-6-oxo-1,6-dihydro-pyridin-3-yl]-pyrazol-1-yl}-6-fluoro-benzonitrile], the IC50 is less than 500 nM.

In the case of `COc1ccc(C#N)c(-n2cc(-c3cn(C)c(=O)cc3-c3ccnc(OC)c3)cn2)c1` [Example 266, 4-Methoxy-2-[4-(2′-methoxy-1-methyl-6-oxo-1,6-dihydro-[4,4′]bipyridinyl-3-yl)-pyrazol-1-yl]-benzonitrile], the half-maximal inhibitory concentration (IC50) was less than 500 nM.

On to `Cc1cc(-c2cnn(-c3ccccc3C(=O)O)c2)cn(C)c1=O` [Example 255, 2-[4-(1,5-Dimethyl-6-oxo-1,6-dihydro-pyridin-3-yl)-pyrazol-1-yl]-benzoic acid], for which the IC50 is less than 500 nM.

As to `Cn1cc(-c2cc(=O)n(C)cc2-c2cnn(-c3ccccc3C(=O)NC#N)c2)cn1` [Example 289, N-cyano-2-(4-(1-methyl-4-(1-methyl-1H-pyrazol-4-yl)-6-oxo-1,6-dihydropyridin-3-yl)-1H-pyrazol-1-yl)benzamide], the half-maximal inhibitory concentration (IC50) was less than 500 nM.

Regarding `Cn1cc(-c2coc(-c3ccccc3)n2)c(-c2ccccc2)cc1=O` [Example 396, 1-methyl-4-phenyl-5-(2-phenyloxazol-4-yl)pyridin-2(1H)-one], the half-maximal inhibitory concentration (IC50) was less than 500 nM.

As for `Cn1cc(-c2cnn(-c3ccccc3C#N)c2)c(-c2c[nH]c(=O)c(F)c2)cc1=O` [Example 240, 2-(4-(5-fluoro-1′-methyl-6,6′-dioxo-1,1′,6,6′-tetrahydro-[3,4′-bipyridin]-3′-yl)-1H-pyrazol-1-yl)benzonitrile], the concentration for half-maximal inhibition (IC50) was less than 500 nM.

For the compound `CC(c1ccccc1Cl)n1cc(-c2ccc(=O)n(C)c2)cn1` (stereo not drawn) [Example 19, 5-(1-(1-(2-chlorophenyl)ethyl)-1H-pyrazol-4-yl)-1-methyl-pyridin-2(1H)-one], the IC50 was less than 500 nM.

With `Cc1ccc(-c2cc(=O)n(C)cc2-c2cnn(-c3cccc(Cl)c3C#N)c2)cn1` [Example 369, 2-chloro-6-(4-(1′,6-dimethyl-6′-oxo-1′,6′-dihydro-[3,4′-bipyridin]-3′-yl)-1H-pyrazol-1-yl)benzonitrile], the half-maximal inhibitory concentration (IC50) is less than 500 nM.

Take `CCOc1ccc(-c2cc(=O)n(C)cc2-c2cnn(-c3ccccc3C#N)c2)cn1` [Example 234, 2-[4-(6-Ethoxy-1′-methyl-6′-oxo-1′,6′-dihydro-[3,4′]bipyridinyl-3′-yl)-pyrazol-1-yl]-benzonitrile]: the IC50 was less than 500 nM.

Consider `C[C@H](c1ccccc1)n1cc(-c2cn(C)c(=O)cc2N2CCCC2)cn1` [Example 55, (R)-1-methyl-5-(1-(1-phenylethyl)-1H-pyrazol-4-yl)-4-(pyrrolidin-1-yl)pyridin-2(1H)-one], for which the 50% inhibitory concentration (IC50) is less than 500 nM.

For the compound `CC(C)Nc1ccc(-c2cc(=O)n(C)cc2-c2cnn(-c3cccc(F)c3C#N)c2)cn1` [Example 351, 2-fluoro-6-(4-(6-(isopropylamino)-1′-methyl-6′-oxo-1′,6′-dihydro-[3,4′-bipyridin]-3′-yl)-1H-pyrazol-1-yl)benzonitrile], the concentration for half-maximal inhibition (IC50) was less than 500 nM.

Turning to `Cn1cc(-c2cnn(Cc3ccccc3)c2)c(-c2ccn[nH]2)cc1=O` [Example 114, 5-(1-benzyl-1H-pyrazol-4-yl)-1-methyl-4-(1H-pyrazol-5-yl) pyridin-2(1H)-one], the IC50 was less than 500 nM.

Take `Cn1cc(-c2cc(=O)n(C)cc2-c2cnn(-c3ccccc3C(=O)O)c2)cn1` [Example 208, 2-{4-[1-Methyl-4-(1-methyl-1H-pyrazol-4-yl)-6-oxo-1,6-dihydro-pyridin-3-yl]-pyrazol-1-yl}-benzoic acid]: the concentration for half-maximal inhibition (IC50) is less than 500 nM.

Consider `CCOc1ccc(-c2cc(=O)n(C)cc2-c2cnn(-c3cccc(C4CC4)c3C#N)c2)cn1` [Example 384, 2-cyclopropyl-6-(4-(6-ethoxy-1′-methyl-6′-oxo-1′,6′-dihydro-[3,4′-bipyridin]-3′-yl)-1H-pyrazol-1-yl)benzonitrile], for which the IC50 is less than 500 nM.

Take `COc1cccc(-c2cc(=O)n(C)cc2-c2cnn(Cc3ccccc3)c2)c1` [Example 113, 5-(1-benzyl-1H-pyrazol-4-yl)-4-(3-methoxyphenyl)-1-methyl-pyridin-2(1H)-one]: the concentration for half-maximal inhibition (IC50) was less than 500 nM.

Take `CCSc1cc(=O)n(C)cc1-c1cnn(Cc2ccccc2)c1` [Example 168, 5-(1-Benzyl-1H-pyrazol-4-yl)-4-ethylsulfanyl-1-methyl-1H-pyridin-2-one]: the IC50 was less than 500 nM.

With `Cn1cc(-c2cnn(Cc3ccc(F)cc3)c2)ccc1=O` [Example 6, 5-(1-(4-fluorobenzyl)-1H-pyrazol-4-yl)-1-methylpyridin-2(1H)-one], the IC50 fell in the range of 500 to 5000 nM.

As to `Cc1cc(-c2cnn(C(C)c3cccc(C(F)F)c3)c2)cn(C)c1=O` (stereo not drawn) [Example 11, 5-(1-(1-(3-(difluoro-methyl)phenyl)ethyl)-1H-pyrazol-4-yl)-1,3-dimethylpyridin-2(1H)-one], the half-inhibitory concentration (IC50) was less than 500 nM.

With `Cn1ccc(-c2cc(=O)n(C)cc2-c2cnn(-c3ccccc3F)c2)cc1=O` [Example 318, 5-(1-(2-fluorophenyl)-1H-pyrazol-4-yl)-1,1′-dimethyl-[4,4′-bipyridine]-2,2′(1H,1′H)-dione], the 50% inhibitory concentration (IC50) is less than 500 nM.

On to `Cn1cc(-c2cnn(CC3CC3)c2)c(-c2ccccc2)cc1=O` [Example 146, 5-(1-(cyclopropyl-methyl)-1H-pyrazol-4-yl)-1-methyl-4-phenyl-pyridin-2(1H)-one], for which the concentration for half-maximal inhibition (IC50) was less than 500 nM.

Turning to `CCOc1cc(=O)n(C)cc1-c1cnn(-c2cc(OC)ccc2C#N)c1` [Example 182, 2-[4-(4-Ethoxy-1-methyl-6-oxo-1,6-dihydro-pyridin-3-yl)-pyrazol-1-yl]-4-methoxy-benzonitrile], the IC50 was less than 500 nM.

Take `Cc1cc(-c2cnn(C(C)c3ccccc3)c2)cn(C)c1=O` (stereo not drawn) [Example 17, 1,3-dimethyl-5-(1-(1-phenylethyl)-1H-pyrazol-4-yl)pyridin-2(1H)-one]: the IC50 is less than 500 nM.
